We go through three compounds from patent US6306828A, “Enantiomerically-enhanced nutritional energy substrates” (Baxter International, Inc., priority 1995, dated 2001).

Series [1] relates to isolated rat hepatocytes. In words: Gross toxicity, as gauged by hepatocyte viability. The format is cell-based, male Wistar rats. Particulars: 20 mM. As to the method:
(§1) Assay of Bioavailability and Gross Toxicity of Trilactyl Glycerate in Isolate Rat Hepatocytes
(§2) In the following experiment, male Wistar rats (200-250 g) fasted for 24 hours were used. Hepatocytes were isolated according to the method of Berry and Friend (1969) as modified by Groen et al. (1982).
(§3) The isolated hepatocytes were incubated as follows:
Hepatocytes (final concentration=10 mg dry cell/ml) were incubated in closed vials at 37° C. in a shaking water bath (60 strokes/min) for 30 minutes in 2.5 ml Krebs-bicarbonate buffer (NaCl: 120 mmol/L, KCl: 4.8 mmol/L, KH2 PO4 : 1.2 mmol/L, MgSO4 : 1.2 mmol/L, NaCO3 H: 24 mmol/L, Ca^2+ :2.4 mmol/L, pH 7.4) containing Bovine Serum Albumin (BSA)-oleate (2%-2 mmol/L), trilactyl glycerate or glucose octanoate (20 mM) The gas atmosphere was O2 /CO2 (19:1). After 30 minutes, 0.35 ml samples of the cell suspension were taken and quenched with perchloric acid (HCIO4, final concentration 5% (w/v)), then centrifuged at 13,500 g for 5 minutes. The supernatant was neutralized with KOH (2 M) and Mops (0.3 M) for subsequent determination of metabolites. 0.5 ml aliquots of the cell suspension were centrifuged at 13,500 g for 15 seconds. The pellet was frozen in liquid nitrogen and stored at -80° C. to subsequently measure pyruvate kinase activity.

Series [2] concerns isolated rat hepatocytes. The experiment in a line: Bioavailability/metabolism in isolated rat hepatocytes (production of metabolic intermediates). Particulars: 20 mM; for Glucose production / Ketone Bodies production / Pyruvate-Lactate production: 37° C. In kind it is cell-based, male Wistar rats. As for the experimental part:
as §1, §2, §3
[…] […] The supernatant was neutralized with KOH (2 M) and Mops (0.3 M) for subsequent determination of metabolites. 0.5 ml aliquots of the cell suspension were centrifuged at 13,500 g for 15 seconds. The pellet was frozen in liquid nitrogen and stored at -80° C. to subsequently measure pyruvate kinase activity.

Another series relates to skeletal muscle. Particulars: Hermanson et al. 1972; cited from earlier work.
Another series relates to macrophage cultures. Particulars: high lactate concentration; Jensen et al. 1986; cited from earlier work.
Series [3] concerns cerebral metabolism / brain function during hypoglycemia. Particulars: cited from earlier work.

For the compound `CC(O)C(=O)OCC(COC(=O)C(C)O)OC(=O)C(C)O` (single isomer, unassigned) [trilactyl glycerate], the “gross toxicity, as gauged by hepatocyte viability” value in the series on isolated rat hepatocytes [1] is “No evidence of gross toxicity”. The Glucose production is given as 0.006 with isolated rat hepatocytes [2] (0 Mins.); 0.027 with isolated rat hepatocytes [2] (15 Mins.); 0.062 in the series on isolated rat hepatocytes [2] (30 Mins.); 0.178 in the series with isolated rat hepatocytes [2] (45 Mins.); 0.189 in the series on isolated rat hepatocytes [2] (60 Mins.). The “Ketone Bodies production” value with isolated rat hepatocytes [2] (0 Mins.) stood at 0.010; in the series with isolated rat hepatocytes [2] (15 Mins.) it was 0.12; with isolated rat hepatocytes [2] (30 Mins.) it was 0.15; in the series with isolated rat hepatocytes [2] (45 Mins.), 0.11; in the series on isolated rat hepatocytes [2] (60 Mins.), 0.13. In addition, the Pyruvate-Lactate production in the series with isolated rat hepatocytes [2] (0 Mins.) is reported as 0.012; with isolated rat hepatocytes [2] (15 Mins.), 0.38; with isolated rat hepatocytes [2] (30 Mins.), 0.42; in the series on isolated rat hepatocytes [2] (45 Mins.), 0.45; in the series on isolated rat hepatocytes [2] (60 Mins.), 0.43. The “bioavailability and metabolic conversion” value in the series on isolated rat hepatocytes [2] is “demonstrate the bioavailability of trilactyl glycerate and its interconversion to glucose”.

As to `CCCCCCCC(=O)OC1O[C@H](CO)[C@@H](O)[C@H](O)[C@H]1O` (stereo partly drawn) [glucose octanoate, α,β-D-Glucopyranosyl octanoate], the “bioavailability and metabolic conversion” value in the series on isolated rat hepatocytes [2] is “demonstrate the bioavailability of the substrate and its utility as a keptone precursor”.

In the case of `CC(O)C(=O)O` (stereo not shown) [lactate], in the series with skeletal muscle, the “metabolism of blood lactate by skeletal muscle” value is “metabolized by skeletal muscle in significant quantities”. Besides, in the series on macrophage cultures, the “secretion of angiogenesis factors” value was “encouraged macrophage cultures to secrete angiogenesis factors”. Moreover, the “support of cerebral glucose metabolism and cognitive functions during hypoglycemia” value in series [3] (Amiel 1994) is “able to support cerebral glucose metabolism and maintain cognitive functions during hypoglycemia”. Further, in series [3] (Maran et al. 1994), the “protection of brain function during hypoglycemia” value is reported as “protective of brain function during hypoglycemia”.
